System: whole blood from TB-reactor and BCG-vaccinated animals (IFN-γ response)
Assay type: cell-based, cattle

Row | Substance | recognition in TB-reactor animals not responding to peptides #42 or #55 | further results
1 | RNIVNMLHGVRDGLVRDANN [compound 20] | recognised in TB-reactor animals that failed to respond to peptides #42 or #55 | –
2 | SAELPDWLAANRGLAPGGHA [peptide #64] | recognised in TB-reactor animals that failed to respond to peptides #42 or #55 | immunogenicity in BCG-vaccinated animals on re-screen of Sec#1 components: immunogenic in some BCG-vaccinated animals
3 | QANLGEAAGTYVAADAAAAS [peptide #55] | – | responder frequency, TB-reactor animals: 36%
4 | RDVLAAGDFWGGAGSVACQE [peptide #42] | – | responder frequency, TB-reactor animals: 50%
5 | EAEHQAIIRDVLTASDFWGG [compound 29] | recognised in TB-reactor animals that failed to respond to peptides #42 or #55 | –
6 | LGRNFQVIYEQANAHGQKVQ [peptide #33] | recognised in TB-reactor animals that failed to respond to peptides #42 or #55 | –
7 | Staphylococcal enterotoxin B [SEB, reference compound] | – | IFN-γ response in TB-reactor and BCG-vaccinated animals: all TB-reactor and BCG-vaccinated animals responded

Reference: patent US20170097349A1 (priority 2010, published 2017)
